Measured values as given in the NIST ThermoML archive (doi:10.1016/j.jct.2015.06.020).

Key:
[1] = Crystal; DTA
[2] = Molar enthalpy of transition or fusion; settings: Crystal; DSC
[3] = molar heat capacity at constant pressure; settings: 101.33 kPa, Crystal, Large sample (1 g) DSC

NC(=NO)c1nonc1N [4-amino-3-furazancarboxamidoxime]
Settings	Molar enthalpy of transition or fusion [kcal/mol]	Normal melting temperature [°C]
[1]	–	180.41
[2]	8.99	–

[3]
Settings	molar heat capacity at constant pressure [J/K/mol]
283.15 K	173.37
288.15 K	175.71
293.15 K	178.06
298.15 K	180.4
303.15 K	182.75
308.15 K	185.1
313.15 K	187.44
318.15 K	189.79
323.15 K	192.13
328.15 K	194.48
333.15 K	196.83
338.15 K	199.17
343.15 K	201.52
348.15 K	203.86
353.15 K	206.21
